Data taken from patent US20240417405A1, “Substituted Spiro Derivatives” (Janssen Pharmaceutica NV, priority 2021, published 2024).

Assays:
MOLM14 cells = experiment: Proliferation assay, spheroid-like growth, MOLM14 (MLL-AF9 rearranged); format: cell-based, human; details: Homo sapiens, MOLM-14, 192 h, 8 days, confluence as measure of spheroid size, read-out: spheroid assay_OneTime MOLM14 IC50
Procedure, shortened: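 Read-out is spheroid confluence from live-cell images taken on day 8, scaled between DMSO-treated wells (0% cytotoxicity) and a low control such as 1 μM staurosporin. Cells were exposed to compound for 8 days in low-attachment plates; KO-52 served as the MLL-wildtype counterscreen.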

[1] = biological target: T1, menin/MLL (terbium chelate-labeled menin, FITC-MBM1 peptide) (Homo sapiens, UniProt O00255, T541A); experiment: Menin/MLL homogenous time-resolved fluorescence (HTRF) assay; format: binding; details: 30 min incubation
T1 construct: Menin (a.a 1-610-6xhis tag)
T1 sequence (O00255 with tags, fused parts or gaps T541A): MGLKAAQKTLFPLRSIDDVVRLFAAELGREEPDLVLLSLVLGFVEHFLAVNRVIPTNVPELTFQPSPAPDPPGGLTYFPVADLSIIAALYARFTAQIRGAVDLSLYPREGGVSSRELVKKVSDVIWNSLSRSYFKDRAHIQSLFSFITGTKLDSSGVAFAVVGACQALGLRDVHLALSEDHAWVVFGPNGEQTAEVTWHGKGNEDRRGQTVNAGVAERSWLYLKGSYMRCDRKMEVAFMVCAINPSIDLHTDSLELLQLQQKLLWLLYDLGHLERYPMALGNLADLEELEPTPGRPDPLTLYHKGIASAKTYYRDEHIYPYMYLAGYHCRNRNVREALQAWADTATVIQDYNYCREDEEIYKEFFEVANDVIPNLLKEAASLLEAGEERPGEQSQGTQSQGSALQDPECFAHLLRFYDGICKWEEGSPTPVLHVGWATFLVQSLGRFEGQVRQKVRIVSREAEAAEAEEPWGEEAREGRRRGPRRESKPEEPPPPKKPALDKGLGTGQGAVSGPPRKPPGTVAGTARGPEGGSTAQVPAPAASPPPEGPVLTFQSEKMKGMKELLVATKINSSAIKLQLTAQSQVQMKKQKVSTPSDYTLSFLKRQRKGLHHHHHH
Procedure, shortened: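 Displacement of FITC-labeled MBM1 peptide (75 nM) from terbium-labeled menin 1-610 (200 pM) measured by HTRF emission ratio. Eleven four-fold dilutions, typically from 10 μM, normalised to saturating-competitor and no-compound controls; IC50 from four-parameter logistic.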

Row | SMILES | IC50 (MOLM14 cells) | IC50 [1]
1 | CC(C)C([C@H]1C[C@@H](NC(=O)OC(C)(C)C)C1)N1CC2(CCN(c3ncnnc3Oc3ccc(F)cc3-c3cncnc3C3CC3)C2)C1 (single isomer, unassigned) [Compound 491a] | 4.9 nM | 0.13 nM
2 | CNC(=O)c1cc(N[C@H]2C[C@@H]([C@@H](C(C)C)N3CC4(CCN(c5ncnnc5Oc5ccc(F)cc5-c5cncnc5C5CC5)C4)C3)C2)cnn1 (single isomer, unassigned) [Compound 432] | 22 nM | 0.17 nM
3 | CC(C)[C@H]([C@H]1C[C@@H](Nc2ncc(C(N)=O)s2)C1)N1CC2(CCN(c3ncnnc3Oc3ccc(F)cc3-c3cncnc3C3CC3)C2)C1 (single isomer, unassigned) [Compound 446] | 7 nM | ~0.1 nM
4 | Cc1ncc(-c2cc(F)ccc2Oc2nncnc2N2CCC3(C2)CN([C@@H](C(C)C)[C@H]2C[C@@H](N4CC5COCC5C4)C2)C3)c(C2CC2)n1 (mixture of isomers) [Compound 379] | 1.9 nM | 0.11 nM
5 | CC(=O)Nc1cc(N[C@H]2C[C@@H]([C@@H](C(C)C)N3CC4(CCN(c5ncnnc5Oc5ccc(F)cc5-c5cncnc5C5CC5)C4)C3)C2)ncn1 (single isomer, unassigned) [Compound 418] | 9 nM | 0.07 nM
6 | CC(C)[C@@H]([C@H]1C[C@@H](N2CCC3(CCO3)CC2)C1)N1CC2(CCN(c3ncnnc3Oc3ccc(F)cc3-c3cnncc3C3CC3)C2)C1 (single isomer, unassigned) [Compound 281a] | 10 nM | 0.17 nM
7 | CC(C)[C@@H]([C@H]1C[C@]2(COC(=O)N2)C1)N1CC2(CCN(c3ncnnc3Oc3ccc(F)cc3-c3cnncc3C3CC3)C2)C1 (single isomer, unassigned) [Compound 323] | 53 nM | 0.2 nM
8 | COC(=O)Nc1cc(N[C@H]2C[C@@H]([C@@H](C(C)C)N3CC4(CCN(c5ncnnc5Oc5ccc(F)cc5-c5cncnc5C5CC5)C4)C3)C2)ccn1 (single isomer, unassigned) [Compound 427] | < 1.8 nM | ~0.11 nM
9 | Cc1ncc(-c2cc(F)ccc2Oc2nncnc2N2CCC3(C2)CN([C@@H](C(C)C)[C@H]2C[C@@H](N4CC[C@H](NC(=O)C5CC5)C4)C2)C3)c(C2CC2)n1 [Compound 387] | < 1.8 nM | 0.026 nM
10 | Cc1ncc(-c2cc(F)ccc2Oc2nncnc2N2CCC3(C2)CN([C@@H](C(C)C)[C@H]2C[C@@H](N4C[C@H]5COC[C@H]5C4)C2)C3)c(C2CC2)n1 [Compound 396] | < 1.8 nM | 0.059 nM
11 | CC(=O)N1CCN([C@H]2C[C@@H]([C@H](C(C)C)N3CC4(CCN(c5ncnnc5Oc5ccc(F)cc5-c5nnccc5C5CC5)C4)C3)C2)CC1 (single isomer, unassigned) [Compound 277] | 250 nM | 0.9 nM
12 | CC(C)[C@@H]([C@H]1C[C@@H](NC(=O)C2CC2)C1)N1CC2(CCN(c3ncnnc3Oc3ccc(F)cc3-c3n[nH]c(=O)cc3C3CC3)C2)C1 (single isomer, unassigned) [Compound 310] | > 940 nM | 24.2 nM
13 | CC(=O)Nc1nnc(N[C@H]2C[C@@H]([C@@H](C(C)C)N3CC4(CCN(c5ncnnc5Oc5ccc(F)cc5-c5cncnc5C5CC5)C4)C3)C2)s1 (single isomer, unassigned) [Compound 454] | 13 nM | 0.17 nM
14 | CC(C)C([C@H]1C[C@@H](Nc2n[nH]c3ncncc23)C1)N1CC2(CCN(c3ncnnc3Oc3ccc(F)cc3-c3cncnc3C3CC3)C2)C1 (single isomer, unassigned) [Compound 458] | 27 nM | 0.16 nM
15 | CCOC(=O)c1nnc(N[C@H]2C[C@@H](C(C(C)C)N3CC4(CCN(c5ncnnc5Oc5ccc(F)cc5-c5cncnc5C5CC5)C4)C3)C2)o1 (single isomer, unassigned) [Compound 481] | > 940 nM | 0.14 nM
16 | CC(C)[C@H]([C@H]1C[C@@H](N2CC3(CCS(=O)(=O)CC3)C2)C1)N1CC2(CCN(c3ncnnc3Oc3ccc(F)cc3-c3cncnc3C3CC3)C2)C1 (single isomer, unassigned) [Compound 249] | 9 nM | 0.1 nM
17 | CC(C)[C@H]([C@H]1C[C@@H](N2CC3(CCCCO3)C2)C1)N1CC2(CCN(c3ncnnc3Oc3ccc(F)cc3-c3nnccc3C3CC3)C2)C1 (single isomer, unassigned) [Compound 267] | 180 nM | 1.3 nM
18 | CC(C)[C@@H]([C@H]1C[C@@H](N2C[C@H]3COC[C@H]3C2)C1)N1CC2(CCN(c3ncnnc3Oc3ccc(F)cc3-c3cnncc3C3CC3)C2)C1 (single isomer, unassigned) [Compound 278] | 2 nM | 0.1 nM
19 | Cc1nnc(C2CC2)n1-c1cc(F)ccc1Oc1nncnc1N1CCC2(C1)CN([C@H](C(C)C)C1CC(N(C)C)C1)C2 (mixture of isomers) [Compound 502, N,N-dimethyl-3-[(1R)-1-[7-[6-[2-(3-cyclopropyl-5-methyl-1,2,4-triazol-4-yl)-4-fluoro-phenoxy]-1,2,4-triazin-5-yl]-2,7-diazaspiro[3.4]octan-2-yl]-2-methyl-propyl]cyclobutanamine] | 32 nM | 0.12 nM
20 | CC(=O)N1CCN([C@H]2C[C@@H](C(C(C)C)N3CC4(CCN(c5ncnnc5Oc5ccc(F)cc5-c5cnc(C#N)nc5C5CC5)C4)C3)C2)CC1 (some centres unmarked) [Compound 169] | 51 nM | 0.5 nM
21 | CC(C)[C@H]([C@H]1C[C@@H](N2CCC3(CNC(=O)O3)C2)C1)N1CC2(CCN(c3ncnnc3Oc3ccc(F)cc3-c3nnccc3C3CC3)C2)C1 (single isomer, unassigned) [Compound 328] | 33 nM | 0.1 nM
22 | CCOC(=O)c1coc(N[C@H]2C[C@@H]([C@@H](C(C)C)N3CC4(CCN(c5ncnnc5Oc5ccc(F)cc5-c5cncnc5C5CC5)C4)C3)C2)n1 (single isomer, unassigned) [Compound 480] | 6 nM | 0.15 nM

Further lines, results first:

Row | IC50 (MOLM14 cells) | IC50 [1] | SMILES
23 | 510 nM | 2.1 nM | CC(C)[C@H]([C@H]1C[C@H](N2CCNC(=O)C2)C1)N1CC2(CCN(c3ncnnc3Oc3ccc(F)cc3-c3cncnc3C3CC3)C2)C1 (single isomer, unassigned) [Compound 241]
24 | 88 nM | ~0.27 nM | CC(C)[C@H]([C@H]1C[C@@H](Nc2ncnc3[nH]ncc23)C1)N1CC2(CCN(c3ncnnc3Oc3ccc(F)cc3-c3cncnc3C3CC3)C2)C1 (single isomer, unassigned) [Compound 422]
25 | 9 nM | 0.18 nM | Cc1cc(-c2cnnc(N[C@H]3C[C@@H]([C@@H](C(C)C)N4CC5(CCN(c6ncnnc6Oc6ccc(F)cc6-c6cncnc6C6CC6)C5)C4)C3)c2)[nH]n1 (single isomer, unassigned) [Compound 423]
26 | 19 nM | 0.11 nM | CC(=O)Nc1cncc(N[C@H]2C[C@@H](C(C(C)C)N3CC4(CCN(c5ncnnc5Oc5ccc(F)cc5-c5cncnc5C5CC5)C4)C3)C2)c1 (single isomer, unassigned) [Compound 410]
27 | 42 nM | 0.3 nM | CC(C)[C@H]([C@H]1C[C@@H](Nc2ccn3ccnc3c2)C1)N1CC2(CCN(c3ncnnc3Oc3ccc(F)cc3-c3cncnc3C3CC3)C2)C1 (single isomer, unassigned) [Compound 406]
28 | 63 nM | 0.2 nM | CNC(=O)c1coc(N[C@H]2C[C@@H](C(C)N3CC4(CCN(c5ncnnc5Oc5ccc(F)cc5-c5cncnc5C5CC5)C4)C3)C2)n1 (single isomer, unassigned) [Compound 461]
29 | < 2 nM | 0.1 nM | CC(C)[C@@H]([C@H]1C[C@@H](N2CC3(CCCCO3)C2)C1)N1CC2(CCN(c3ncnnc3Oc3ccc(F)cc3-c3nnccc3C3CC3)C2)C1 (single isomer, unassigned) [Compound 266]
30 | 9 nM | 0.2 nM | COC1(C)CN([C@H]2C[C@@H]([C@H](C(C)C)N3CC4(CCN(c5ncnnc5Oc5ccc(F)cc5-c5nnccc5C5CC5)C4)C3)C2)C1 (single isomer, unassigned) [Compound 263]
31 | > 940 nM | 5.6 nM | CC(C)[C@H]([C@H]1C[C@@H](N2CCC3(CCO3)C2)C1)N1CC2(CCN(c3ncnnc3Oc3ccc(F)cc3-c3nnccc3C3CC3)C2)C1 (single isomer, unassigned) [Compound 269]
